The text below walks through data of patent US20240197728A1, “METHODS AND PHARMACEUTICAL COMPOSITIONS FOR TREATING REFRACTORY EPILEPSY” (INSERM (INSTITUT NATIONAL DE LA SANTÉ ET DE LA RECHERCHE …, priority 2021, published 2024).

The test deals with KCC2. Put plainly: Immunoprecipitation/immunoblot of KCC2 phosphorylation and expression in hippocampo-cortical slices. To be noted: for change of total KCC2 expression: slices; for change of total KCC2 expression / change of KCC2 phosphorylation at S940 / change of KCC2 phosphorylation at T906 / change of KCC2 phosphorylation at T1007: vs DMSO. Format: cell-based, rat. As for the experimental part:
For all experiments on hippocampal cultures, neurons were pre-incubated for 2 hours with either DMSO, PCPZ or CLP257 in a CO2 incubator set at 37° C. Drugs were added directly to the culture medium. For electrophysiology experiments, neurons were also recorded in presence of these drugs in the bath. For biochemistry experiments on rat hippocampo-cortical slices, slices were incubated with either DMSO (vehicle), CLP257, PCPZ, WNK463 or sodium orthovanadate for 2 hours in interface chambers set at 37° C. For human tissue experiments, slices were pre-incubated with either DMSO, CLP257 or PCPZ for 2 hours in interface chambers set at 37° C. and then also recorded in presence of these compounds.
8-weeks old Sprague Dawley male rats were anesthetized by intraperitoneal ketamine/xylazine injection (120/10 mg/kg) and perfused transcardially with ice-cold (0-4° C.), oxygenated solution (O2/CO2 95/5%), containing (in mM): N-methyl-d-glucamine 93, KCl 2.5, NaH2PO4 1.2, NaHCO330, HEPES 20, D-glucose 20, ascorbic acid 5, sodium pyruvate 3, MgSO4 10 and CaCl2) 0.5 (300-310 mOsm, pH7.4). Brains were removed and transverse hippocampo-cortical slices (400 m thick) were prepared in the same solution using a vibratome (HM650V, Microm). Slices were then incubated for 2-hours with DMSO, the KCC2 enhancers (CLP257, PCPZ, WNK43) or sodium orthovanadate in an interface chamber containing artificial cerebrospinal fluid (ACSF) composed of (in mM): D-glucose 10, KCl 3.5, NaHOC3 26, NaH2PO4 1.25, NaCl 126, CaCl2) 1.6 and MgCl2 1.2 (290 mOsm), equilibrated with 5% CO2 in 95% 02. After the treatments, slices were washed with cold PBS, instantaneously frozen with liquid nitrogen and stored at −80° C.
Slices were mechanically lysed on ice, using a 2 mL Dounce, in a buffer containing (in mM): Tris/HCl, pH 7.5 50, EGTA 1, EDTA 1, sodium orthovanadate 1, sodium-B-glycerophosphate 10, sodium fluoride 50, sodium pyrophosphate 5, sucrose 270, benzamidine 1, phenylmethylsulfonyl fluoride 2, Triton […], (v/v) 2-mercaptoethanol 0.1% and protease inhibitors (Roche). After complete homogenization, samples were centrifuged (16,000×g at 4° C. for 10 min) and the supernatant was collected. Protein quantification was done using Pierce BCA Protein Assay kit (Thermo Scientific) with BSA as standard.
The following phosphorylation site-specific antibodies: anti-KCC3A phospho Thr1048 (0.35 mg/ml, sheep, [S0961C] 1st bleed, Dundee), anti-KCC3A phospho Thr 991 (0.26 mg/ml, sheep, [S959C] 1st bleed, Dundee) were first incubated for 30 min at 4° C. with the corresponding non-phosphorylated peptide (10 mg/ml, Dundee).
Phospho-antibodies or anti-KCC2 antibodies (07-432; Millipore) were then coupled with protein-G-Sepharose (4 Fast Flow; Sigma-Aldrich) at a ratio of […] of antibody per 100 μl of beads, for 2 h at 4° C. without agitation. 1.5 mg of clarified cell lysate was incubated with the antibody-coupled bead suspension, overnight at 4° C. under gentle agitation. The supernatant was collected after centrifugation and beads were washed twice with NaCl solution (0.25M NaCl in 1×PBS) and twice with PBS alone. Bound proteins were eluted with 2×LDS sample buffer (Invitrogen) containing 0.5% (v/v) 2-mercaptoethanol and denaturated at 75° C. for 20 min (IP with phospho-antibodies) or 37° C. for 1 h (IP with anti-KCC2 antibodies) before centrifugation (13,000×g at 4° C. for 15-20 min).
Samples were subjected to electrophoresis on polyacrylamide gradient gels (4-12% bis-tris gels) and transferred to nitrocellulose membranes. Membranes were rinsed with TBS-tween solution (TBST; Invitrogen) and blocked with 5% (w/v) skim milk. The membranes were then immunoblotted in 5% (w/v) skim milk in TBST with a primary antibody against KCC2 (rabbit, 07-432; Millipore; 1:1000), or phosphotyrosine (mouse, clone 4G10, Millipore, 1:1000), and a mouse primary antibody against neuron-specific beta-III tubulin overnight at 4° C. (clone 2G10; T8578; Sigma-Aldrich; 1:1000). […]
A general note: Immunoblotting shows a protein as a band on a membrane.

SMILES strings stand for the structures.

As to `CN1CCN(CCCN2c3ccccc3Sc3ccc(Cl)cc32)CC1` [PCPZ, prochlorperazine], where the note is “10 μM PCPZ, 2 h”, the “change of tyrosine phosphorylation of KCC2” value is on record as “+6.38±14.7%”, the “change of total KCC2 expression” value is “+12.1±32.8%”, the “change of KCC2 phosphorylation at S940” value is listed as “+20.30±18.70%” and the “change of KCC2 phosphorylation at T906” value is listed as −10.20±10.40%. Further, for the setting “10 μM PCPZ, 2 h”, the “change of KCC2 phosphorylation at T1007” value is reported as “+26.40%±17.00”.

For `O=C1N=C(N2CCCCN2)S/C1=C\c1ccc(F)cc1O` [CLP257, (5Z)-5-[(4-Fluoro-2-hydroxyphenyl)methylene]-2-(tetrahydro-1-(2H)-pyridazinyl)-4(5H)-thiazolone], where the note is “100 μM CLP257, 2 h”, the “change of tyrosine phosphorylation of KCC2” value is reported as “+19.00±15.00%”, the “change of total KCC2 expression” value is −6.92±11.80%, the “change of KCC2 phosphorylation at S940” value was −19.70±34.40% and the “change of KCC2 phosphorylation at T906” value is listed as −12.70±10.90%. For the setting “100 μM CLP257, 2 h”, the “change of KCC2 phosphorylation at T1007” value is on record as −18.50±17.10%.
